Columns and labels:
[1] = system: antibodies in sera from SARS patients (sera 1a, 1b, 2, 6, 37, 62, London, SARS-yellow, SARS-green); format: binding, human; set-up: Binding of serum 6 to linear peptides of protein X1 of SARS-CoV Urbani / Binding of serum 37 to linear peptides of protein X1 of SARS-CoV Urbani / Binding of serum 6 to looped/cyclic peptide (PEPSCAN-ELISA) / Binding of serum 37 to looped/cyclic peptide (PEPSCAN-ELISA) / Binding of serum 37 to looped/cyclic peptides of protein X1 of SARS-CoV Urbani / Binding of serum 6 to linear peptides of protein X2 / Binding of serum 37 to linear peptides of protein X2 / Binding of serum 37 to looped/cyclic peptides of protein X2 of SARS-CoV Urbani / Binding of serum 6 to linear peptides of protein M of SARS-CoV Urbani / Binding of serum 37 to linear peptides of protein M of SARS-CoV Urbani / Binding of serum 6 to looped/cyclic peptides of protein M of SARS-CoV Urbani / Binding of serum 37 to looped/cyclic peptides of protein M of SARS-CoV Urbani / Binding of serum 6 to linear peptides of protein X3 of SARS-CoV Urbani / Binding of serum 37 to linear peptides of protein X3 of SARS-CoV Urbani / Binding of serum 37 to looped/cyclic peptides of protein X3 of SARS-CoV Urbani / Binding of serum 6 to linear peptides of protein X4 of SARS-CoV Urbani / Binding of serum 37 to linear peptides of protein X4 of SARS-CoV Urbani / Binding of serum 37 to looped/cyclic peptides of protein X4 of SARS-CoV Urbani / Binding of serum 6 to linear peptides of protein X5 of SARS-CoV Urbani / Binding of serum 37 to linear peptides of protein X5 of SARS-CoV Urbani / Binding of serum 37 to looped/cyclic peptides of protein X5 of SARS-CoV Urbani / Binding of serum 6 to linear peptides of protein N of SARS-CoV Urbani / Binding of serum 37 to linear peptides of protein N of SARS-CoV Urbani / Binding of serum 6 to linear peptide (PEPSCAN-ELISA) / Binding of serum 1a to looped/cyclic peptides of protein N of SARS-CoV Urbani / Binding of serum 1b to looped/cyclic peptides of protein N of SARS-CoV Urbani / Binding of serum 2 to looped/cyclic peptides of protein N of SARS-CoV Urbani / Binding of serum 6 to looped/cyclic peptides of protein N of SARS-CoV Urbani / Binding of serum 37 to looped/cyclic peptides of protein N of SARS-CoV Urbani / Binding of serum 62 to looped/cyclic peptides of protein N of SARS-CoV Urbani / Binding of serum London to looped/cyclic peptides of protein N of SARS-CoV Urbani / Binding of serum SARS-green to looped/cyclic peptides of protein N of SARS-CoV Urbani: unit not given here
[2] = system: rabbit serum obtained by immunizing a rabbit with the SARS-CoV strain Frankfurt 1; format: binding; set-up: Binding of a rabbit serum to linear peptides / Binding of a rabbit serum to looped peptides / Rabbit serum linear peptides / Rabbit serum looped peptides / Binding of a rabbit serum to linear peptides of protein N of SARS-CoV Urbani (Rabbit serum linear peptides) / Binding of a rabbit serum to looped/cyclic peptides of protein N of SARS-CoV Urbani (Rabbit serum looped peptides): unit not given here
[3] = system: control sera (pooled serum of ten healthy LUMC hospital workers; commercial negative donor pooled serum from the Dutch bloodbank); format: binding, human; set-up: Binding of Control serum LUMC to linear peptides / Binding of Control serum Blood-bank to linear peptides / Binding of Control serum LUMC to looped peptides / Binding of Control Serum Blood-Bank to Looped peptides / Binding of Control serum LUMC to linear peptides of the protein M of SARS-CoV Urbani / Binding of Control serum Blood-bank to linear peptides of the protein M of SARS-CoV Urbani / Binding of Control serum LUMC to looped peptides of the protein M of SARS-CoV Urbani / Binding of Control Serum Blood-Bank to Looped peptides of the protein M of SARS-CoV Urbani: unit not given here
[4] = system: recombinant human anti-SARS-CoV antibody 03-018; format: binding; set-up: Binding of antibody 03-018 to linear peptides of the N protein of SARS-CoV Urbani / Binding of antibody 03-018 to looped/cyclic peptides of the N protein of SARS-CoV Urbani: unit not given here

| Sequence | Binding of serum 1a to linear peptides of protein N of SARS-CoV Urbani [1] | Binding of serum 1a to looped/cyclic peptides of protein N of SARS-CoV Urbani [1] | Binding of serum 1b to linear peptides of protein N of SARS-CoV Urbani [1] | Binding of serum 1b to looped/cyclic peptides of protein N of SARS-CoV Urbani [1] | Binding of serum 2 to looped/cyclic peptides of protein N of SARS-CoV Urbani [1] | Binding of serum 6 to looped/cyclic peptides of protein N of SARS-CoV Urbani [1] | Binding of serum 37 to looped/cyclic peptides of protein N of SARS-CoV Urbani [1] | Binding of serum 62 to looped/cyclic peptides of protein N of SARS-CoV Urbani [1] | Binding of serum London to looped/cyclic peptides of protein N of SARS-CoV Urbani [1] | Binding of serum SARS-green to looped/cyclic peptides of protein N of SARS-CoV Urbani [1] | Binding of serum SARS-yellow to looped/cyclic peptides of protein N of SARS-CoV Urbani [1] | Binding of a rabbit serum to linear peptides of protein N of SARS-CoV Urbani (Rabbit serum linear peptides) [2] | Binding of a rabbit serum to looped/cyclic peptides of protein N of SARS-CoV Urbani (Rabbit serum looped peptides) [2] | Binding of antibody 03-018 to linear peptides of the N protein of SARS-CoV Urbani [4] | Binding of antibody 03-018 to looped/cyclic peptides of the N protein of SARS-CoV Urbani [4] | Recognition of the peptide by sera of SARS-CoV infected individuals, and form (linear, looped/cyclic) in which it is recognized [1] | Binding of Control Serum Blood-Bank to Looped peptides [3] | Binding of Control serum Blood-bank to linear peptides [3] | Binding of Control serum LUMC to linear peptides [3] | Binding of Control serum LUMC to looped peptides [3] | also measured |
| --- | --- | --- | --- | --- | --- | --- | --- | --- | --- | --- | --- | --- | --- | --- | --- | --- | --- | --- | --- | --- | --- |
| QPTVTLLPAADMDDF | 0.3 | 0.3 | 0.2 | 0.2 | 0.2 | 0.1 | 0.5 | 0.3 | 0.2 | 0.4 | 0.4 | 0.1 | 0.0 | 0.1 | 0.2 |  |  |  |  |  | Binding of serum 2 to linear peptides of protein N of SARS-CoV Urbani [1]: 0.2; Binding of serum 6 to linear peptides of protein N of SARS-CoV Urbani [1]: 0.2; Binding of serum 37 to linear peptides of protein N of SARS-CoV Urbani [1]: 1.1; Binding of serum 62 to linear peptides of protein N of SARS-CoV Urbani [1]: 0.7; Binding of serum London to linear peptides of protein N of SARS-CoV Urbani [1]: 0.5; Binding of serum SARS-green to linear peptides of protein N of SARS-CoV Urbani [1]: 1.9; Binding of serum SARS-yellow to linear peptides of protein N of SARS-CoV Urbani [1]: 0.7; Control Serum Blood-Bank Looped peptides [3]: 0.5; Control serum Blood-bank linear peptides [3]: 0.7; Control serum LUMC linear peptides [3]: 0.5; Control serum LUMC looped peptides [3]: 0.5 |
| QQGQTVTKKSAAEAS |  | 0.5 |  | 0.4 | 0.5 | 0.3 | 0.6 | 0.5 | 0.4 | 0.8 | 0.5 | 0.2 | 0.0 | 0.1 | 0.2 | recognized in linear form | 0.5 | 0.8 | 0.7 | 0.5 |  |
| QRRPQGLPNNTASWF | 0.2 | 0.5 | 0.1 | 0.3 | 0.5 | 0.4 | 0.7 | 0.6 | 0.5 | 0.7 | 0.6 | 0.1 | 0.6 | 0.1 | 0.2 |  | 0.8 | 0.7 | 0.6 | 0.9 | Binding of serum 2 to linear peptides of protein N of SARS-CoV Urbani [1]: 0.1; Binding of serum 6 to linear peptides of protein N of SARS-CoV Urbani [1]: 0.2; Binding of serum 37 to linear peptides of protein N of SARS-CoV Urbani [1]: 0.6; Binding of serum 62 to linear peptides of protein N of SARS-CoV Urbani [1]: 0.7; Binding of serum London to linear peptides of protein N of SARS-CoV Urbani [1]: 0.4; Binding of serum SARS-green to linear peptides of protein N of SARS-CoV Urbani [1]: 0.2; Binding of serum SARS-yellow to linear peptides of protein N of SARS-CoV Urbani [1]: 0.7 |
| QTQGNFGDQDLIRQG |  | 0.5 |  | 0.4 | 0.5 | 0.3 | 0.9 | 0.9 | 0.6 | 0.4 | 0.8 | 0.1 | 0.6 | 0.1 | 0.2 | recognized in linear form | 0.8 | 0.9 | 0.9 | 0.7 |  |
| QTVTKKSAAEASKKP |  | 0.3 |  | 0.2 | 0.4 | 0.2 | 0.5 | 0.3 | 0.3 | 0.0 | 0.2 | 0.2 | 0.3 | 0.1 | 0.2 | recognized in linear form | 0.5 | 0.8 | 0.9 | 0.5 |  |

From patent publication US20070128217A1 (priority 2003, published 2007)
